Data from patent US12576169B2, “Silicon-fluoride acceptor substituted radiopharmaceuticals and precursors thereof” (Technische Universität München, priority 2019, dated 2026).
Like-named read-outs stand apart in the source and are kept apart here.

What was measured:
HSA = HSA (Homo sapiens, UniProt P02768); conditions: cited from earlier work; for Lit. HSA binding: literature values (Yamazaki, Kanaoka 2004); for Log K HSA: logarithmic K of HSA binding literature values
[1] = n-Octanol-PBS partition coefficient (logD7.4); format: physicochemical; conditions: 18F-labeled ligand; n-octanol/PBS pH=7.4; mean ± SD (n = 5)
Protocol: Approx. 0.5 MBq of the ^18F-labeled SiFA-PSMA ligand were added into a test tube containing n-octanol (500 μL) and PBS (500 μL, pH=7.4). After vigorously shaking the two-phase mixture for 3 min at rt, the test tube was centrifuged at 9.000 rpm for 5 min to achieve quantitative phase separation. Finally, 150 μL of each layer were pipetted off and measured for activity using a gamma counter. After repeating the experiment for at least five times, the n-octanol-PBS partition coefficient log D7.4 was calculated according to following formula.

LNCaP cells = assay: Internalization of 18F-labeled ligands into LNCaP cells; format: cell-based, human; conditions: internalized activity at 1 h in % of reference [125I]XII; c = 0.5 nM; LNCaP cells (125.000 cells/well); 37° C., DMEM/F-12 add. 5% BSA; corrected for non-specific binding (10 μm PMPA); mean ± SD (n = 3)
Protocol: LNCaP cells were grown in DMEM/F-12 (add. 10% FCS, v/v) and maintained at 37° C. in a humidified 5% CO2 atmosphere. […] Subsequent to the removal of the culture medium, cells were washed with DMEM-F12 (add. 5% BSA, v/v, 500 μL) and left to equilibrate in DMEM-F12 (add. 5% BSA, v/v, 200 μL) at 37° C. for 15 min. Each well was treated with either DMEM-F12 (add. 5% BSA, v/v, 25 μL) or a 2-(phosphonomethyl)-pentandioic acid (PMPA) solution (100 μM in PBS, 25 μL) for blockade. Afterwards, the ^18F-labeled SiFA-PSMA ligand (5 nM in PBS, 25 μL) was added and the cells were incubated for 1 h at 37° C. The experiment was terminated by placing the 24-well plate on ice for 3 min and removal of the assay medium. Each well was rinsed with HBSS (4° C., 250 μL) and the fractions were combined with the previous assay medium, representing the amount of unbound radioligand. For removal of surface bound activity, LNCaP cells were incubated with PMPA solution (10 μM in PBS, 4° C., 250 μL) for 5 min and rinsed again with PBS (250 μL, 4° C.). The internalized activity was determined by incubation of LNCaP cells with 1 M aq. NaOH (250 μL) for at least 10 min and combination with the fraction of a subsequent wash step with 1 M aq. NaOH (200 μL). Each experiment (control and blockade) was performed in triplicate. […] All internalization studies were accompanied by reference studies using the reference compound XII (2 nM in HBSS add. 1% BSA, v/v), which were performed analogously. Data were corrected for non-specific internalization and normalized to the specific-internalization observed for the radioiodinated reference compound.

[2] = target: T1, human serum albumin (HSA) (Homo sapiens, UniProt P02768); assay: Binding to HSA on a Chiralpak HSA column; format: in vitro ADME; conditions: calibration with nine reference substances
T1 construct: purchased H13H-2433
T1 sequence (P02768 25-609): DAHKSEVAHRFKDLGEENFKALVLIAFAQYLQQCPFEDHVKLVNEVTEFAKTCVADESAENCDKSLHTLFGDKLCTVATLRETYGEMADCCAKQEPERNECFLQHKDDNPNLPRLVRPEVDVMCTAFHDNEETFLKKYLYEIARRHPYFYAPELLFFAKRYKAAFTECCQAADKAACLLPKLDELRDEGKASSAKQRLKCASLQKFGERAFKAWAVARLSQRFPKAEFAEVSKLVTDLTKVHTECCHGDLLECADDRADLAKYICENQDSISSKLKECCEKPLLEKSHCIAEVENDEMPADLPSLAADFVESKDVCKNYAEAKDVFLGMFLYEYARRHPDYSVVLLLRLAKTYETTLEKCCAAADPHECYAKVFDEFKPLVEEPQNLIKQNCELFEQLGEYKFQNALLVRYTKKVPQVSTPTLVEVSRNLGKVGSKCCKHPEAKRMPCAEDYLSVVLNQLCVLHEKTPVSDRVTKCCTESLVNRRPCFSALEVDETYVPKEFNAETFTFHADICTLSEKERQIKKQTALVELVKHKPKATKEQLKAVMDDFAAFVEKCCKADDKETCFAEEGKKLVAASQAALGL
Protocol: For the determination of human serum albumin (HSA) binding, a Chiralpak HSA column (50×3 mm, 5 μm, H13H-2433) was used at a constant flow rate of 0.5 mL/min. The mobile phase composed of a 50 mM NH4OAc solution in water with pH=7 (solvent C) and isopropanol (solvent D) was freshly prepared for each experiment and used only once. The reference substances (Table 1) as well as the analyzed SiFA-PSMA ligands were dissolved in a mixture of solvent C/solvent D (1:1, v/v, 0.5 mg/mL) and eluted from the HSA column (0-3 min: 100% C, 3-20 min: 20% D in C, λ=254 nm). The column was kept at rt and each run was stopped after detection of the signal to reduce the acquisition time. The nine reference substances display an HSA binding range of 13% to 99% and were injected consecutively in order to establish a sigmoidal calibration curve with the software OriginPro 2018b (FIG. 1).

PSMA [3] = target: T2, PSMA (Homo sapiens, UniProt Q04609); assay: IC50 determination: PSMA binding affinity, competition with [125I]XII on LNCaP cells
T2 sequence (Q04609 whole entry): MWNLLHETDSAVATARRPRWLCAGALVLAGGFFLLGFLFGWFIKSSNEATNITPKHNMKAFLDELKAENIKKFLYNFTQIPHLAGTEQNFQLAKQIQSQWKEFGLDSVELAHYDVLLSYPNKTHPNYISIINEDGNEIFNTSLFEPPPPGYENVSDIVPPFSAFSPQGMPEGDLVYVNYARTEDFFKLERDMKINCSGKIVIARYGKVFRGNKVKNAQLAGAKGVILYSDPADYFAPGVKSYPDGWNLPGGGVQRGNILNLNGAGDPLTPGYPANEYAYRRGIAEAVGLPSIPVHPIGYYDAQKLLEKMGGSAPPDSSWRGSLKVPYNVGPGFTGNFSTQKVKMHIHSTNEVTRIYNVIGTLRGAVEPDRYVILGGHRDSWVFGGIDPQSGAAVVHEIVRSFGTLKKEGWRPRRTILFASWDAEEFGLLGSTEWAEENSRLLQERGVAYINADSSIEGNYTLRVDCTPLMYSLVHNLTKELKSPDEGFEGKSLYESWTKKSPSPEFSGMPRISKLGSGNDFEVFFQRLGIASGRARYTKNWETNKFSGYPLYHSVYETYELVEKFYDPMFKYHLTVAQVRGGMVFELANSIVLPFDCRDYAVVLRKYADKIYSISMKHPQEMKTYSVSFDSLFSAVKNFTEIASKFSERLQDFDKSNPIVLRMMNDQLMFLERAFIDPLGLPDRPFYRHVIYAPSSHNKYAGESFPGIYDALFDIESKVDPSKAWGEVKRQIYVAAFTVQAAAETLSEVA
Protocol: LNCaP cells were grown in Dulbecco's Modified Eagle Medium/Nutrient Mixture F-12 (DMEM/F-12, add. 10% fetal calf serum (FCS), v/v) and maintained at 37° C. in a humidified 5% CO2 atmosphere. […] After removal of the culture medium, LNCaP cells were treated with HBSS (add. 1% BSA, v/v, 4° C., 500 μL) and subsequently left 15 min on ice for equilibration in HBSS (add. 1% BSA, v/v, 4° C., 200 μL). […] For the control series, HBSS (add. 1% BSA, v/v, 25 μL) was used instead of the SiFA-PSMA ligand solution. Each concentration and the control were prepared in triplicate. After 1 h incubation on ice, the assay medium was removed and cells were washed with HBSS (200 μL, 4° C.). […] NaOH (200 μL) for at least 10 min and the resulting cell lysate was removed. The wells were treated again with 1 M aq. […] The experiment was repeated for at least three times and the IC50 value calculated using the GraphPad PRISM 8.0.2 software (Graphpad Software Inc., La Jolla, United States).

[4] = radiolabeled established inhibitors; literature; cited from earlier work
PSMA [5] = target: T2, PSMA; conditions: PSMA binding affinity; literature; cited from earlier work
PSMA [6] = target: T2, PSMA; conditions: after 1 h; literature; cited from earlier work
[7] = Wangler et al. 2010; cited from earlier work

Sequence of HSA (P02768 25-609): as the sequence (P02768 25-609) above

Row | Compound | Lit. HSA binding (HSA) [%] | Log K HSA (HSA) | logP(o/w) [4] | further results
1 | Nc1ccccc1 [Aniline] | 14.06 | −0.7912 | – | –
2 | OCc1ccccc1 [Benzyl alcohol] | 13.15 | −0.8248 | – | –
3 | COc1ccc(Cl)cc1C(=O)NCCc1ccc(S(=O)(=O)NC(=O)NC2CCCCC2)cc1 [Glibenclamide] | 99.00 | 1.695 | – | –
4 | Oc1ccccc1 [Phenol] | 20.69 | −0.589 | – | –
5 | CC(C)(C)[Si](F)(c1ccc(C(=O)N[C@H](CC(=O)N[C@H](CCCCNC(=O)CCC(=O)NCCC[C@@H](NC(=O)CC[C@H](NC(=O)N[C@@H](CCC(=O)O)C(=O)O)C(=O)O)C(=O)O)C(=O)O)C(=O)N[C@H](CCCCNC(=O)CCC(=O)NCCC[C@@H](NC(=O)CC[C@H](NC(=O)N[C@@H](CCC(=O)O)C(=O)O)C(=O)O)C(=O)O)C(=O)O)cc1)C(C)(C)C [SiFA-PSMA ligand 06] | – | – | – | logD7.4 [1]: −3.77 ± 0.04; Internalization (LNCaP cells): 270.03 ± 16.10%; Binding to HSA [2]: ≥98.9%; IC50 (PSMA [3]): 7.4 ± 1.9 nM
6 | O=C(O)CC[C@H](NC(=O)N[C@@H](CCCCNC(=O)[C@H](Cc1ccc2ccccc2c1)NC(=O)[C@H]1CC[C@H](CNC(=O)CN2CCN(CC(=O)O)CCN(CC(=O)O)CCN(CC(=O)O)CC2)CC1)C(=O)O)C(=O)O [[^68Ga]PSMA-617, PSMA-617, metal not drawn] | – | – | −4.30 ± 0.10 | –
7 | O=C(O)CC[C@H](NC(=O)N[C@@H](CCCCNC(=O)c1ccc([18F])nc1)C(=O)O)C(=O)O [[^natF/^18F]DCFPyI, DCFPyI] | – | – | −3.4 | –
8 | O=C([O-])CN(CCN(CC(=O)[O-])Cc1cc(CCC(=O)NCCCCCC(=O)NCCCC[C@H](NC(=O)N[C@@H](CCC(=O)O)C(=O)O)C(=O)O)ccc1[O-])Cc1cc(CCC(=O)O)ccc1[O-].[68Ga+3].[OH3+] [[^natGa/^68Ga]PSMA-11, PSMA-11] | – | – | −4.1 ± 0.1 | IC50 (PSMA [5]): 6.1 ± 0.8 nM; Internalization (1 h) (PSMA [6]): 91.1 ± 1.7
9 | PSMA I&T [[^natGa/^68Ga]PSMA I&T] | – | – | −4.3 ± 0.3 | IC50 (PSMA [5]): 9.3 ± 3.3 nM; Internalization (1 h) (PSMA [6]): 59.2 ± 1.7
10 | PSMA-1007 [[^natF/^18F]PSMA-1007] | – | – | −1.6 | IC50 (PSMA [5]): 4.2 ± 0.5 nM
11 | SiFA-Asn(AcNH-β-Glc)-PEG-Tyr^3-octreotate | – | – | – | log P(ow) [7]: 0.96
12 | SiFA-Asn(AcNH-β-Glc)-Tyr^3-octreotate | – | – | – | log P(ow) [7]: 1.23
